The source of these data is ChEMBL document CHEMBL4393731, “Discovery of fused bicyclic derivatives of 1H-pyrrolo[1,2-c]imidazol-1-one as VDR signaling regulators” (Bioorg Med Chem, 2019).

Series [1] deals with T1, Vitamin D3 receptor (Homo sapiens) (UniProt P11473).
T1 sequence (whole entry): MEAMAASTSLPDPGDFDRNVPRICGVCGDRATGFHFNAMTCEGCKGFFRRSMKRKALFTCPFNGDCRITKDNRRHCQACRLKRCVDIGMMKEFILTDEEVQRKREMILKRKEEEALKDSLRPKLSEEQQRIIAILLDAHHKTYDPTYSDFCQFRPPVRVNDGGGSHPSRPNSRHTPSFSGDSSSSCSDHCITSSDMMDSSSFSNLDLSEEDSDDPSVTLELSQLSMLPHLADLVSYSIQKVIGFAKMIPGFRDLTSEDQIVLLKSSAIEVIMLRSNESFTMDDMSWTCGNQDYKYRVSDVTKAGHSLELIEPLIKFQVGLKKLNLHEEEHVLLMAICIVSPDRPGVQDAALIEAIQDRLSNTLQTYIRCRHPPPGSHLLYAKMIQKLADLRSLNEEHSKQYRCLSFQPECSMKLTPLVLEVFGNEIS
As to the kind of experiment: Modulation of VDR in human HeLa cells assessed as increase in calcitriol-induced LC3-2 to LC3-1 ratio at 10 uM measured after 4 hrs by Western blot analysis. It counts as cell-based. Background: Immunoblotting shows a protein as a band on a membrane.

The target in series [2] is T1, Vitamin D3 receptor (Homo sapiens). As to the kind of experiment: Modulation of VDR in human HeLa cells assessed as increase in calcitriol-induced upregulation of p62 expression at 10 uM measured after 4 hrs by Western blot analysis. The format is cell-based.
The test system of series [3] is HeLa. In words: Induction of autophagy in human HeLa cells assessed as calcitriol-induced up regulation of LC3-1 expression at 10 uM measured after 4 hrs by Western blot analysis. It counts as functional, cell-based.
Series [4] has as its system HeLa. In words: Cytotoxicity against human HeLa cells measured after 24 hrs by MTT assay. It counts as cell-based. A general note: Tetrazolium assays rely on reduction of a dye to a coloured formazan, in cell work by metabolically active cells.
Series [5] addresses Genome polyprotein (dengue virus type 2) (UniProt P29990). As to the kind of experiment: Inhibition of Dengue virus 2 NS2B-NS3 protease.
Series [6] has as its target T1, Vitamin D3 receptor (Homo sapiens). As to the kind of experiment: Modulation of VDR (unknown origin) expressed in human HeLa cells assessed as increase in calcitriol-induced response measured after 24 hrs by luciferase reporter assay. It counts as cell-based. Background: Reporter assays use an easily measured gene product as a stand-in for the process of interest.

Series [7] has the same target. As to the kind of experiment: Activation of VDR (unknown origin) expressed in human HeLa cells measured after 24 hrs by luciferase reporter assay. The format is cell-based.
Series [8] shares this target. In words: Modulation of VDR (unknown origin) expressed in human HeLa cells assessed as increase in calcitriol-induced response at 10 uM measured after 24 hrs by luciferase reporter assay relative to control. The format is cell-based.
Series [9] shares this target. As to the kind of experiment: Activation of VDR in human HeLa cells assessed as up regulation of phosphorylated p65 expression at 10 uM measured after 24 hrs in the presence of calcitriol by Western blot analysis. It counts as cell-based.
Series [10] has the same target. As to the kind of experiment: Modulation of VDR in human HeLa cells assessed as down regulation of p65 expression at 10 uM measured after 24 hrs in the presence of calcitriol by Western blot analysis. The format is cell-based.
Series [11] deals with HeLa. In words: Up regulation of VDR expression in human HeLa cells at 10 uM measured after 4 hrs in presence of VDR shRNA by Western blot analysis. It counts as functional, cell-based.
Series [12] relates to HeLa. As to the kind of experiment: Induction of autophagy in human HeLa cells transformed with VDR shRNA assessed as effect on p62 expression at 10 uM measured after 4 hrs in presence of calcitriol by Western blot analysis. The format is functional, cell-based.
The test system of series [13] is HeLa. As to the kind of experiment: Induction of autophagy in human HeLa cells transformed with VDR shRNA assessed as up regulation of LC3-1 expression at 10 uM measured after 4 hrs in presence of calcitriol by Western blot analysis. The format is functional, cell-based.
The subject of series [14] is HeLa. In words: Induction of autophagy in human HeLa cells transformed with VDR shRNA assessed as up regulation of LC3-2 expression at 10 uM measured after 4 hrs in presence of calcitriol by western blot analysis. It counts as functional, cell-based.
For series [15], the target named is T1, Vitamin D3 receptor (Homo sapiens). As to the kind of experiment: Modulation of VDR in human HeLa cells assessed as increase in calcitriol-induced upregulation of LC3-2 expression at 10 uM measured after 4 hrs by Western blot analysis. It counts as cell-based.
The test system of series [16] is HeLa. As to the kind of experiment: Induction of autophagy in human HeLa cells transformed with VDR shRNA assessed as effect on p62 expression at 10 uM measured after 4 hrs by Western blot analysis. It counts as functional, cell-based.
In series [17] the test system is HeLa. As to the kind of experiment: Induction of autophagy in human HeLa cells transformed with VDR shRNA assessed as increase in LC3-2 to LC3-1 ratio at 10 uM measured after 4 hrs in presence of calcitriol by Western blot analysis. It counts as functional, cell-based.

SMILES strings stand for the structures. Calls of active or inactive are those of the source. The calls are words filed in the database; no cut-off is given here.

As to `CSCC[C@H](N)C(=O)Oc1ccc([C@H]2N(c3ccc([N+](=O)[O-])cc3)C(=O)[C@@H]3CCCN32)cc1.Cl`, the outcome (in series [1]; in [2]; in the series with HeLa [3]; in series [9]; in series [10]; with HeLa [11]) was Active. Further, the outcome (in the series with HeLa [13]; in the series on HeLa [14]; in series [15]; in the series with HeLa [17]) was Active. For the same compound, in the series on HeLa [4], the CC10 is above 10 µM. In series [5], the “Inhibition (active/not active)” value is “inactive”. Further, the Activity result in [6] was “Dose-dependent effect”. Further, the result (in series [7]; with HeLa [12]; in the series with HeLa [16]) was inactive. In series [8], the fold change (FC) lay in the range of 2.5 to 3.
